In data set [1] the test system is CYP 2C19. Nature of the data set: CYP induction (mRNA and CYP activity). It is filed as in vitro ADME, human. The source says: (§1) The inhibition of cytochrome P450 (CYP) isoforms and a range of cellular transporters (except multidrug and toxin extrusion [MATE] proteins), as well as the induction of CYP isoforms were investigated using previously described methods.

The target in data set [2] is CYP 2C19 (Homo sapiens, UniProt P33261). Nature of the data set: CYP inhibition with probe substrate. It is filed as in vitro ADME. The conditions noted are these: probe substrate mephenytoin.
Text: as §1

The nature of data set [3]: Mass balance and metabolite profiling in excreta after i.v. [14C]-nifurtimox in bile duct-cannulated (BDC) rats. Type of data set: in vivo, male Wistar rats. Particulars: BDC male Wistar rats, 2.5 mg/kg i.v., up to 24 h. The protocol:
(§2) Animals were housed in suitable metabolism cages. […] Blood cells and plasma were separated by centrifugation. Plasma was stored at ≤-15°C prior to analysis. […] All biological samples were weighed immediately. […] The remaining carcass was also wet-weighed.

Data set [4] can be described thus: Quantification of nifurtimox and metabolites in rat plasma after a single high dose (200 mg/kg). Type of data set: in vivo, Wistar rats. The conditions noted are these: for AUC(0-t) / AUC / Cmax / Tmax / half-life: Wistar, rat, plasma, po, 200 mg/kg; for ratio of rat:human AUC(0-24): rat 200 mg/kg oral vs human 120 mg oral. The protocol:
Blood cells and plasma were then separated by centrifugation, and the plasma was stored at ≤-15°C until required. For analysis, plasma samples were thawed at room temperature and homogenized by vortex mixing. Plasma samples were pooled separately for male and female rats by combining 25 µL from each of the 4 animals for each timepoint. […] To each pooled plasma (100 µL), calibration, or control sample, 300 µL of an internal standard solution containing [^2H8]-nifurtimox (500 ng/mL) and [^2H3]-M-6 (2500 ng/mL) in acetonitrile + 0.5% formic acid in water (v/v) was added and mixed thoroughly. All samples were then centrifuged (20,000 g, 5 min) to precipitate the protein. The supernatant was analyzed using a 1290 Infinity LC system equipped with a diode array detector and an Orbitrap Q-Exactive Plus HRMS (Thermo Fisher Scientific, Bremen, Germany) with a heated electrospray ionization source. […] The mobile phase gradient was: 0 min, 0% B; 2.5 min, 0% B; 3 min, 20% B; 8 min, 45% B; 9 min, 90% B; 10.1 min, 90% B; 12 min, 0% B; 13 min, 0% B. The following HRMS parameters were used: mass range, 120-200 Da (0-2.5 min) and 230-600 Da (2.5-13 min) in full scan mode; resolution, 280,000; ion source voltage, 3500 V; capillary temperature, 300°C; source temperature, 60°C.
The calibration was based on the relative peak area as a function of concentration obtained by linear regression. […] Thus, all concentrations in μg/mL were back-calculated to nmol/mL. The PK parameters for each analyte were calculated using ToxKin software, as described above.

Data set [5] can be described thus: Mass balance and metabolite profiling in excreta after oral [14C]-nifurtimox in intact rats. The conditions noted are these: intact male Wistar rats, 2.5 mg/kg oral, up to 120 h.
Description: After an adaption period, the animals were prepared for the study. Bile duct cannulation was performed on selected animals the day before their use in experiments.
In a mass balance study (n = 5) and a PK study (n = 2 per timepoint), 2.5 mg/kg b.w. […] For i.v. administration, 2.5 mg/kg b.w. […] In an additional stability study, male Wistar rats (n = 3 per timepoint) were administered 2.5 mg/kg b.w. […] The total radioactivity concentration in the dosage form was confirmed by liquid scintillation counting (LSC).
Animals were housed in suitable metabolism cages. Blood was collected from separate rats at 0.25, 0.5, 1, 1.5, 2, 3, 5, and 8 h post-dose and stored in lithium heparinized tubes. Blood cells and plasma were separated by centrifugation. Plasma was stored at ≤-15°C prior to analysis. […] At the end of the study, the cages were rinsed with water, and samples were collected. All biological samples were weighed immediately. Feces samples were homogenized with water to obtain a uniform radioactivity distribution. All samples were stored deep-frozen at ≤-15/-70°C before further processing. During the necropsy, selected organs and tissues were collected and wet-weighed. The remaining carcass was also wet-weighed. The carcass and all tissues were homogenized and stored at room temperature prior to processing for analysis. In the stability study, blood and urine were collected at 0.25 and 0.5 h post-dose. Plasma and urine were immediately frozen in liquid nitrogen and stored at -80°C to prevent degradation. The total radioactivity in samples and tissues was determined by LSC after appropriate sample preparation.
Aliquots of individual urine or bile samples were pooled separately for each time interval by equal volume and analyzed using HPLC-LSC. Aliquots of individual feces samples were pooled separately for each time interval, ensuring that each aliquot contained the same amount of radioactivity. The pooled samples were extracted twice with a mixture of acetonitrile/water (80:20 v/v, 2 x 0.5 mL). The resulting suspensions were centrifuged (20,000 g, 5 min), and the supernatants were then combined for each time interval, concentrated, and subjected to HPLC-LSC.
The amount of total radioactivity in urine, feces, bile, and tissues was determined by multiplying the volume or weight of the samples by the respective total radioactivity concentration. The amount of radioactivity recovered in the excreta (AE), cage wash, and tissues was compared with the administered radioactive dose to establish the radioactive balance. Cumulative excretion was calculated as the sum of the excretion for each collection interval. Arithmetic means and coefficients of variation (CV) were calculated for these percentages. During metabolite profiling, the concentration or amount of each analyte for each sample and timepoint or interval was calculated by multiplying the total radioactivity concentration or amount excreted of each sample with the percent area of each analyte obtained after HPLC-LSC separation.
Data set [6] can be described thus: Plasma PK of total radioactivity, [14C]-nifurtimox and metabolites after oral dosing (HPLC-LSC). Type of data set: in vivo. The conditions noted are these: male Wistar rats. The protocol: as §2
Aliquots of individual plasma samples were pooled separately for each timepoint by equal volume. For protein precipitation, pooled plasma was treated with a three-fold volume of acetonitrile. Samples were homogenized and precipitated by centrifugation (20,000 g, 5 min). Samples were concentrated and analyzed using high-performance liquid chromatography (HPLC) with off-line radioactivity detection by LSC (HPLC-LSC).

Where [7] appears, read: 30-min preincubation, read-out: Pre- IC50 (+ NADPH).
Where [8] appears, read: coincubation, read-out: Co- IC50.
Setting [9] is: female, read-out: AUC(0–24), female animals.
[10] abbreviates: female, read-out: AUC, female animals.
[11] abbreviates: female, read-out: Cmax, female animals.
Setting [12] is: female, read-out: tmax, female animals.
The mark [13] stands for this setting: female, read-out: t½, female animals (converted).
The mark [14] stands for this setting: male, read-out: AUC(0–24), male animals.
Setting [15] is: male, read-out: AUC, male animals.
The mark [16] stands for this setting: male, read-out: Cmax, male animals.
[17] abbreviates: male, read-out: tmax, male animals.
The mark [18] stands for this setting: male, read-out: t½, male animals (converted).
Where [19] appears, read: single oral 2.5 mg/kg [14C]-nifurtimox, pooled plasma.

This is an account of results in publication PMC10661964 (Current Drug Metabolism, 2023).

Where two headings read alike, the source gives them in different places. Marks after values point to notes of the source that are not given here.

Chain of CYP 2C19 (Homo sapiens, UniProt P33261) (P33261 whole entry): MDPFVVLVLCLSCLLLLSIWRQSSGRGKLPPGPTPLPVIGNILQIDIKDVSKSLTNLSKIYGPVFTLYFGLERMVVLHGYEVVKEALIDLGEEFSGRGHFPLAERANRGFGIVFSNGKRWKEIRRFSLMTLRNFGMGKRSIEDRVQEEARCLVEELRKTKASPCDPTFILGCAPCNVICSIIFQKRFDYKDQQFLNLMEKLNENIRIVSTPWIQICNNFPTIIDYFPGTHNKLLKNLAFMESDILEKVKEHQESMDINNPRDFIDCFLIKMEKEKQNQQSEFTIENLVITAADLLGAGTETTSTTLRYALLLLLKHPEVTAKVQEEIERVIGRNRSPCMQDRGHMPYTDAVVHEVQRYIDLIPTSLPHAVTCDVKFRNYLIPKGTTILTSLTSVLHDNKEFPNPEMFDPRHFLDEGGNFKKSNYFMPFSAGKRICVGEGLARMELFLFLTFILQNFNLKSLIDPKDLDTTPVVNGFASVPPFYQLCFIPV

As to `CC1CS(=O)(=O)CCN1n1cc(SCC(N)C(=O)O)ccc1=O` (stereo not drawn) [M-4], the “concentration up to which no induction (mRNA and CYP activity)” value with CYP 2C19 [1] was “up to 80000 µg/L”. In addition, the IC50 on CYP 2C19 [2] (setting [7]) and at CYP 2C19 [2] (setting [8]) was above 20 µM each time. Moreover, the “TDI (time-dependent inhibition)” value at CYP 2C19 [2] was “No”. Further, in data set [3], the “component excreted in bile, i.v. dosing” value is given as 0.968 % of the administered dose. In addition, the AUC(0-t) in data set [4] (setting [9]) was 4.84 µM·h; in data set [4] (setting [14]), 4.78 µM·h. In addition, the figures for the AUC in data set [4] (setting [10]), in data set [4] (setting [15]) and in data set [6] (setting [19]) were 7.41 µM·h, 9.77 µM·h and 791 µg-eq*h/L, respectively. Besides, the Cmax in data set [4] (setting [11]) stood at 568 nM; in data set [4] (setting [16]) it was 338 nM; in data set [6] (setting [19]), 48.3 µg-eq/L. For the same molecule, the Tmax (in general, the time at which the peak concentration occurs) in data set [4] (setting [12]) was 3 h; in data set [4] (setting [17]), 2 h; in data set [6] (rat, single oral 2.5 mg/kg [14C]-nifurtimox, pooled plasma), 0.5 h. In addition, the half-life in data set [4] (setting [13]) is 18.6 h; in data set [4] (setting [18]), 18.3 h; in data set [6] (rat, single oral 2.5 mg/kg [14C]-nifurtimox, plasma, interval up to 8 h, read-out: t½ (converted)), 12.3 h. In addition, the “ratio of rat:human AUC(0-24)” value in data set [4] was 2.0-2.1 fold. In addition, the “component excreted in urine, oral dosing” value in data set [5] was “no M-4 was detected”. In addition, in data set [6] (oral 2.5 mg/kg, M-2+M-3, M-4, M-5 are estimates based on AUC(0-tn), 2.5 mg/kg), the “%AUC(0-8) (relative to total radioactivity AUC(0-8))” value is listed as 2.42^c %. Besides, the “AUC(0-tn)” value in data set [6] (setting [19]) is given as 107 µg-eq*h/L. Further, the “tn (time of last quantifiable concentration)” value in data set [6] (setting [19]) turned out to be 3 h.
On to `CC1CS(=O)(=O)CCN1N` (stereo not drawn) [M-6], for which the “concentration up to which no induction (mRNA and CYP activity)” value in the data set on CYP 2C19 [1] is recorded as “up to 90000 µg/L”. In addition, the IC50 on CYP 2C19 [2] (setting [7]) and on CYP 2C19 [2] (setting [8]) was above 100 µM throughout. The “TDI (time-dependent inhibition)” value at CYP 2C19 [2] is “No”. Moreover, the AUC(0-t) in data set [4] (setting [9]) was 65.8 µM·h; in data set [4] (setting [14]), 78.4 µM·h. Further, the AUC in data set [4] (setting [10]) is 96.1 µM·h; in data set [4] (setting [15]), 148 µM·h. For the same molecule, the figures for the Cmax in data set [4] (setting [11]) and in data set [4] (setting [16]) were 3920 nM and 3650 nM, respectively. Also, the results for the Tmax in data set [4] (setting [12]) and in data set [4] (setting [17]) were 3 h and 24 h, respectively. In addition, the figures for the half-life in data set [4] (setting [13]) and in data set [4] (setting [18]) were 13.5 h and 10.6 h, respectively. Further, in data set [4], the “ratio of rat:human AUC(0-24)” value is listed as 2.4-2.8 fold.
